Assay results reported in patent US7875618B2, “Substituted imidazo[1,5-a]quinoxalines useful as inhibitors of phosphodiesterase 10 for the treatment of neurological and other disorders” (Wyeth, priority 2007, dated 2011).

Assays:
PDE10 from pig striatum = PDE10 from pig striatum (Sus scrofa, UniProt A0A287B941); assay: Inhibition of PDE10 from pig striatum ([3H]-cAMP SPA, Methods A and B); assay type: biochemical; details: PDE10 pig
Method: Striatum from male Wistar rats (180-200 g), male hybrid pigs (150 kg) and male guinea pigs (CRL (HA), 500 g) respectively were collected and frozen at −70° C. At the day of preparation 0.5 g striatum was homogenised in 10 ml 50 mM Tris/Mg-buffer at 4° C. and centrifuged for one hour at 100000 g. The supernatant is called the cytosolic fraction and was removed and stored on ice. The pellet was resuspended in the same buffer, but containing 1% Triton and incubated for 45 min at 4° C. Both fractions were independently applied onto a 5 ml Hi Trap™ QHP column at the Äkta-FPLC. After washing the columns the bound PDE protein was eluted with an increasing sodium chloride gradient (0 mM-500 mM sodium chloride) in 50 mM Tris/Mg-buffer at 4° C. for the cytosolic fraction and in the presence of 1% Triton for the membrane fraction. […] The fractions with PDE10-activity were pooled and frozen in aliquots until use at −20° C. PDE10 activity was determined in a one step procedure in microtiter plates. […] Nonspecific activity was tested without the enzyme. The reaction was initiated by addition of the substrate solution and was carried out at 37° C. for 30 minutes. Enzymatic activity was stopped by addition of 25 μl YSi-SPA-beads (Amersham-Pharmacia). One hour later the mixture was measured in a liquid scintillation counter for microtiter plates (Microbeta Trilux). To pipette the incubation mixture a robot Biomek (Fa. Beckman) is used. […] For determination of IC50 values the Hill-plot, 2-parameter-model, was used. […] Striatum from male hybrid pigs (150 kg) were collected and frozen at −70° C. At the day of preparation 0.5 g striatum was homogenised in 10 ml 50 mM Tris/Mg-buffer at 4° C. and centrifuged for one hour at 100000 g. The supernatant was removed and the pellet was resuspended in the same buffer, but containing 1% Triton and incubated for 45 min at 4° C. The membrane fraction was applied onto a 5 ml Hi Trap™ QHP column at the Äkta-FPLC. After washing the column the bound PDE protein was eluted with an increasing sodium chloride gradient (0 mM-500 mM sodium chloride) in 50 mM Tris/Mg-buffer at 4° C. in the presence of 1% Triton. […] The fractions with PDE10-activity were pooled and frozen in aliquots until use at −20° C. PDE10 activity was determined in a one step procedure in microtiterplates. […] Nonspecific activity was tested without the enzyme. The reaction was initiated by addition of the substrate solution and was carried out at 37° C. for 30 minutes. Enzymatic activity was stopped by addition of 25 μl YSi-SPA-beads (Amersham-Pharmacia). One hour later the mixture was measured in a liquid scintillation counter for microtiterplates (Microbeta Trilux). To pipette the incubation mixture a robot Biomek (Fa. Beckman) is used. […] For determination of IC50 values the Hill-plot, 2-parameter-model, was used.

human recombinant PDE10A = biological target: T1, human recombinant PDE10A (Homo sapiens, UniProt Q9Y233); assay: Inhibition of human recombinant PDE10A ([3H]-cAMP SPA, Method B); assay type: biochemical; details: read-out: PDE10 inhibition IC50 [nM] PDE10A human
T1 construct: made in house; host or cells: SF21 insect cells (baculovirus)
T1 sequence (Q9Y233 1-779 isoform Q9Y233-1): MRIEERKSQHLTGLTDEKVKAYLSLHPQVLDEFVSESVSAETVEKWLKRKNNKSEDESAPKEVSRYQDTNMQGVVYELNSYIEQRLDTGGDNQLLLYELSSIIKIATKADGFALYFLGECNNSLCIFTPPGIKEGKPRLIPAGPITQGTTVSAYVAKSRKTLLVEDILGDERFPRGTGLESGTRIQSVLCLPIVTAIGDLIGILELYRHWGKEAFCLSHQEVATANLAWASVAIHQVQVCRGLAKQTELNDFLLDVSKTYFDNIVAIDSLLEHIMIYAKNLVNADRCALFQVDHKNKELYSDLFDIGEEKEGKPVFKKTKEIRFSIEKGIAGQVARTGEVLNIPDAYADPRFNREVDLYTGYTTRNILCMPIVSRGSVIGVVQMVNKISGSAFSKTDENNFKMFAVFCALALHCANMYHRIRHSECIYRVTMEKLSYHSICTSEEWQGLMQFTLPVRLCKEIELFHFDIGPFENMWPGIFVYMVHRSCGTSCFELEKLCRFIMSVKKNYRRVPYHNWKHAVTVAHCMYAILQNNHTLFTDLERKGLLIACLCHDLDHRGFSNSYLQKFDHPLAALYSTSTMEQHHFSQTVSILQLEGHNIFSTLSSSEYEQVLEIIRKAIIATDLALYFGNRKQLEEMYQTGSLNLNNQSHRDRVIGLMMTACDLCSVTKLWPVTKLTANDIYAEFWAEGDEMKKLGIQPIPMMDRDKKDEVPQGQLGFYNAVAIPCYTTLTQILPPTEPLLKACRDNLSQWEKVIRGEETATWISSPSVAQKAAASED

Structure (SMILES) | melting point [°C] | IC50 (PDE10 from pig striatum) [nM] | IC50 (human recombinant PDE10A) [nM]
CCc1nc(C)c2c(N)nc3ccccc3n12 [Example 3, 1-Ethyl-3-methyl-imidazo(1,5-a)quinoxalin-4-ylamine] | 192 to 195 | ≥ 100 | –
CCCc1nc(C)c2c(N)nc3ccccc3n12 [Example 4, 3-Methyl-1-propyl-imidazo(1,5-a)quinoxalin-4-ylamine] | 187 to 188 | ≥ 100 | –
CCc1nc(C)c2c(N)nc3ccc(F)cc3n12 [Example 5, 1-Ethyl-8-fluoro-3-methyl-imidazo(1,5-a)quinoxalin-4-ylamine] | 238 to 239 | ≥ 100 | –
CCCc1nc(C)c2c(N)nc3ccc(F)cc3n12 [Example 6, 8-Fluoro-3-methyl-1-propyl-imidazo(1,5-a)quinoxalin-4-ylamine] | 240 to 243 | 10 to 100 | –
Cc1nc(C2CCCCC2)n2c1c(C)nc1ccc(Cl)cc12 [Example 10, 8-Chloro-1-cyclohexyl-3,4-dimethyl-imidazo(1,5-a)quinoxaline] | 228 to 234 | 10 to 100 | –
CCc1nc(C)c2c(C)nc3ccccc3n12 [Example 11, 3,4-Dimethyl-1-ethyl-imidazo(1,5-a)quinoxaline] | 123 to 125 | ≥ 100 | –
CCc1nc(C)c2c(C)nc3ccc(F)cc3n12 [Example 12, 3,4-Dimethyl-1-ethyl-8-fluoro-imidazo(1,5-a)quinoxaline] | 139 to 142 | ≥ 100 | –
CCCc1nc(C)c2c(C)nc3ccc(F)cc3n12 [Example 13, 3,4-Dimethyl-8-fluoro-1-propyl-imidazo(1,5-a)quinoxaline] | 140 to 144 | 10 to 100 | –
Cc1nc(C2CCCCC2)n2c1c(C)nc1ccc(F)cc12 [Example 14, 1-Cyclohexyl-3,4-dimethyl-8-fluoro-imidazo(1,5-a)quinoxaline] | 195 to 200 | 10 to 100 | –
CCCc1nc(C)c2c(C)nc3ccc(OC)cc3n12 [Example 16, 3,4-Dimethyl-8-methoxy-1-propyl-imidazo(1,5-a)quinoxaline] | 99 to 101 | – | 10 to 100
CCc1nc(C)c2c(C)nc3ccc(N4CCCCC4)cc3n12 [Example 17, 3,4-Dimethyl-1-ethyl-8-(piperidin-1-yl)-imidazo(1,5-a)quinoxaline] | 132 to 134 | 10 to 100 | –
COc1ccc2nc(N)c3c(C)nc(C4CCCCC4)n3c2c1 [Example 38, 1-Cyclohexyl-8-methoxy-3-methyl-imidazo[1,5-a]quinoxalin-4-ylamine] | 211 to 212 | – | 10 to 100
CCCc1nc(C)c2c(N)nc3ccc(OCC4CC4)cc3n12 [Example 39, 8-Cyclopropylmethoxy-3-methyl-1-propyl-imidazo[1,5-a]quinoxalin-4-ylamine] | 163 to 167 | – | 10 to 100
Cc1nc(C2CCCCC2)n2c1c(N)nc1ccc(OCC3CC3)cc12 [Example 40, 1-Cyclohexyl-8-cyclopropylmethoxy-3-methyl-imidazo[1,5-a]quinoxalin-4-ylamine] | 241 to 242 | 10 to 100 | ≥ 100
CCCc1nc(C)c2c(C)nc3ccc(OCC4CC4)cc3n12 [Example 42, 8-Cyclopropylmethoxy-3,4-dimethyl-1-propyl-imidazo[1,5-a]quinoxaline] | 110 to 112 | 10 to 100 | 10 to 100
COc1ccc2nc(C)c3c(C)nc(C4CCCCC4)n3c2c1 [Example 43, 1-Cyclohexyl-8-methoxy-3,4-dimethyl-imidazo[1,5-a]quinoxaline] | 165 to 169 | – | 10 to 100

Structure (SMILES) | melting point [°C] | IC50 (PDE10 from pig striatum) [nM] | IC50 (human recombinant PDE10A) [nM]
Cc1nc(C2CCCCC2)n2c1c(C)nc1ccc(OCC3CC3)cc12 [Example 44, 1-Cyclohexyl-8-cyclopropylmethoxy-3,4-dimethyl-imidazo[1,5-a]quinoxaline] | 154 to 157 | 10 to 100 | ≥ 100
CCCc1nc(C)c2c(C)nc3c(OC)cc(OC)cc3n12 [Example 45, 6,8-Dimethoxy-3,4-dimethyl-1-propyl-imidazo[1,5-a]quinoxaline] | 185 to 187 | ≤ 10 | ≤ 10
CCCc1nc(C)c2c(C)nc3c(OCC(F)(F)F)cc(OCC(F)(F)F)cc3n12 [Example 46, 3,4-Dimethyl-1-propyl-6,8-bis-(2,2,2-trifluoro-ethoxy)-imidazo[1,5-a]quinoxaline] | 200 to 206 | – | ≥ 100
COc1ccc2c(c1)nc(C)c1c(C)nc(-c3ccccc3Cl)n12 [Example 47, 1-(2-Chloro-phenyl)-7-methoxy-3,4-dimethyl-imidazo[1,5-a]quinoxaline] | 186 to 188.5 | ≤ 10 | 10 to 100
CCCc1nc(C)c2c(C)nc3cc(OC)ccc3n12 [Example 48, 7-Methoxy-3,4-dimethyl-1-propyl-imidazo[1,5-a]quinoxaline] | 111 to 117 | – | 10 to 100
CCCc1nc(C)c2c(C)nc3cc(OCc4ccc5ccccc5n4)ccc3n12 [Example 49, 3,4-Dimethyl-1-propyl-7-(quinolin-2-ylmethoxy)-imidazo(1,5-a)quinoxaline] | 134 to 136 | ≤ 10 | ≤ 10
Cc1nc(-c2ccccc2Cl)n2c1c(C)nc1c(OCC3CC3)cc(OCC3CC3)cc12 [Example 50, 1-(2-Chloro-phenyl)-6,8-bis-cyclopropylmethoxy-3,4-dimethyl-imidazo[1,5-a]quinoxaline] | 180 to 195 | ≤ 10 | ≤ 10
COc1cc(OC)c2nc(C)c3c(C)nc(C4CCCCC4)n3c2c1 [Example 51, 1-Cyclohexyl-6,8-dimethoxy-3,4-dimethyl-imidazo[1,5-a]quinoxaline] | 219 to 222 | ≤ 10 | ≤ 10
CCc1nc(C)c2c(Cl)nc3ccccc3n12 [Intermediate B3] | 125 to 128 | 10 to 100 | –
CCCc1nc(C)c2c(Cl)nc3ccccc3n12 [Intermediate B4, 4-Chloro-3-methyl-1-propyl-imidazo(1,5-a)quinoxaline] | 99 to 101 | 10 to 100 | –
CCc1nc(C)c2c(Cl)nc3ccc(F)cc3n12 [Intermediate B5] | 157 to 160 | 10 to 100 | –
CCCc1nc(C)c2c(Cl)nc3ccc(F)cc3n12 [Intermediate B6, 4-Chloro-8-fluoro-3-methyl-1-propyl-imidazo(1,5-a)quinoxaline] | 133 to 135 | 10 to 100 | –
Cc1nc(C2CCCCC2)n2c1c(Cl)nc1ccc(F)cc12 [Intermediate B7, 4-Chloro-1-cyclohexyl-8-fluoro-3-methyl-imidazo(1,5-a)quinoxaline] | 205 to 210 | 10 to 100 | –
Cc1nc(C2CCCCC2)n2c1c(Cl)nc1ccc(Cl)cc12 [Intermediate B9, 4,8-Dichloro-1-cyclohexyl-3-methyl-imidazo(1,5-a)quinoxaline] | 244 to 248 | ≥ 100 | –
CCCc1nc(C)c2c(Cl)nc3ccc(N4CCCCC4)cc3n12 [Intermediate B10] | 105 to 108 | 10 to 100 | –
